Results as given in US20240118287A1, “ANALYSIS PLATE FOR A MASS SPECTROMETRY ANALYSIS AND ASSOCIATED METHOD FOR CHARACTERIZING MICROORGANISMS BY MASS SPECTROMETRY” (priority 2021, published 2024).
Converted amounts (≈) assume the structure as drawn.

Tests used:
Type in all cases: cell-based
Ref 3 E. coli = experiment: MIC by microdilution in broth, reference strain Ref 3; design: key to Phenotype (R = resistant, S = sensitive): RA signifies resistance to amoxicillin; RC signifies resistance to ceftriaxone; RM signifies resistance to meropenem; RO resistance to oxacillin; SA signifies sensitive to amoxicillin; SC signifies sensitive to ceftriaxone; SM signifies sensitive to meropenem; SO sensitive to oxacillin; settings: for MIC: Escherichia coli, TEM-2, microdilution in broth, read-out: Minimum inhibitory concentration (MIC in μg/ml); for Phenotype (R = resistant, S = sensitive): TEM-2
Experimental: (§1) The minimum inhibitory concentration (MIC in μg/ml) was determined by microdilution in broth, a technique very widely used by a person skilled in the art.

Ref 4 E. coli = experiment: MIC by microdilution in broth, reference strain Ref 4; design: key to Phenotype (R = resistant, S = sensitive): RA signifies resistance to amoxicillin; RC signifies resistance to ceftriaxone; RM signifies resistance to meropenem; RO resistance to oxacillin; SA signifies sensitive to amoxicillin; SC signifies sensitive to ceftriaxone; SM signifies sensitive to meropenem; SO sensitive to oxacillin; settings: for MIC: Escherichia coli, microdilution in broth, read-out: Minimum inhibitory concentration (MIC in μg/ml)
Experimental: as §1

Ref 1 K. pneumoniae = experiment: MIC by microdilution in broth, reference strain Ref 1; design: key to Phenotype (R = resistant, S = sensitive): RA signifies resistance to amoxicillin; RC signifies resistance to ceftriaxone; RM signifies resistance to meropenem; RO resistance to oxacillin; SA signifies sensitive to amoxicillin; SC signifies sensitive to ceftriaxone; SM signifies sensitive to meropenem; SO sensitive to oxacillin; settings: for Phenotype (R = resistant, S = sensitive): KPC-2; for MIC: Klebsiella pneumoniae, KPC-2, microdilution in broth, read-out: Minimum inhibitory concentration (MIC in μg/ml)
Experimental: as §1

Ref 5 E. coli = experiment: MIC by microdilution in broth, reference strain Ref 5; design: key to Phenotype (R = resistant, S = sensitive): RA signifies resistance to amoxicillin; RC signifies resistance to ceftriaxone; RM signifies resistance to meropenem; RO resistance to oxacillin; SA signifies sensitive to amoxicillin; SC signifies sensitive to ceftriaxone; SM signifies sensitive to meropenem; SO sensitive to oxacillin; settings: CTX-M; for MIC: Escherichia coli, microdilution in broth, read-out: Minimum inhibitory concentration (MIC in μg/ml)
Experimental: as §1

[1] = test system: Isolate 7 (Klebsiella pneumoniae); experiment: Resistance characterization on functionalized analysis plate, MALDI-TOF (Example 4); settings: isolate 7 (K. pneumoniae); threshold identification probability ≥90% for at least 3 deposits out of 4; amoxicillin 2, ceftriaxone 24, meropenem 2 μg/ml
Experimental: (§2) This cassette comprises a gasket so as to be able to dispose the analysis plate on a sponge impregnated to saturation with Muller-Hinton culture medium. The sponge impregnated with a culture medium serves as a support, and it is made of porous material as described in the description.
(§3) A cover was placed on the cassette containing the analysis plate so as to be clipped on the cassette and close the device without touching the top of the drops.
(§4) The analysis cassettes thus prepared were incubated in the stove at 37° C. for 2, 3, 4 or 5 hours.
(§5) At the end of the incubation step, the analysis plates are placed on very absorbent, dry blotting paper, with an absorption capacity of 25 μL·cm^−2, so that the drops present on the analysis plate are aspirated by capillarity through the analysis zones made of porous material.
(§6) 1 μl of HCCA matrix, alpha-cyano 4-hydroxycinnamic acid (VITEK®MS-CHCA, bioMérieux reference 411071) was deposited on the analysis zones, comprising the microorganisms and the antimicrobial agent, and on the calibration zones comprising the calibrant.
(§7) The analysis plate is then dried and analyzed by VITEK®MS as described in example 1.
(§8) The isolates identified in example 1 were diluted to 0.5 McFarland (McF) in Muller-Hinton medium (bioMérieux reference AEB 110699), then diluted again to 1/100° for the Gram-negative bacteria and to 1/10° for the Gram-positive bacteria, always in Muller-Hinton medium.
(§9) Drops of 2 μl of the final dilutions were deposited on the analysis zones of the analysis plates according to the invention as described in example 2. As before, the dilutions of E. coli and of K. pneumoniae were analyzed on the targets with 16 deposits of amoxicillin, 16 deposits of ceftriaxone and 16 deposits of meropenem. The dilutions of Staphylococci were analyzed on the targets with 2 μg/ml of oxacillin.
(§10) The analysis was carried out according to the same procedure as in example 3 with an incubation of 4 h for all the microorganisms. Moreover, the results were interpreted as in example 3, i.e. with a threshold of identification probability greater than or equal to 90% for at least 3 deposits out of 4.

[2] = test system: Isolate 1 (Escherichia coli); experiment: as above; settings: threshold identification probability ≥90% for at least 3 deposits out of 4, amoxicillin 2, ceftriaxone 24, meropenem 2 μg/ml
Experimental: as §2, §3, §4, §5, §6, §7, §8, §9, §10

[3] = test system: Isolate 8 (Klebsiella pneumoniae); experiment: as above; settings: isolate 8 (K. pneumoniae); threshold identification probability ≥90% for at least 3 deposits out of 4; amoxicillin 2, ceftriaxone 24, meropenem 2 μg/ml
Experimental: as §2, §3, §4, §5, §6, §7, §8, §9, §10

[4] = test system: Isolate 5 (Escherichia coli); experiment: as above; settings: isolate 5 (E. coli); threshold identification probability ≥90% for at least 3 deposits out of 4; amoxicillin 2, ceftriaxone 24, meropenem 2 μg/ml
Experimental: as §2, §3, §4, §5, §6, §7, §8, §9, §10

[5] = test system: Isolate 3 (Escherichia coli); experiment: as above; settings: threshold identification probability ≥90% for at least 3 deposits out of 4, amoxicillin 2, ceftriaxone 24, meropenem 2 μg/ml
Experimental: as §2, §3, §4, §5, §6, §7, §8, §9, §10

Ref 2 K. pneumoniae = experiment: MIC by microdilution in broth, reference strain Ref 2; design: key to Phenotype (R = resistant, S = sensitive): RA signifies resistance to amoxicillin; RC signifies resistance to ceftriaxone; RM signifies resistance to meropenem; RO resistance to oxacillin; SA signifies sensitive to amoxicillin; SC signifies sensitive to ceftriaxone; SM signifies sensitive to meropenem; SO sensitive to oxacillin; settings: for MIC: Klebsiella pneumoniae, OXA-48, microdilution in broth, read-out: Minimum inhibitory concentration (MIC in μg/ml); for Phenotype (R = resistant, S = sensitive): OXA-48
Experimental: as §1

Ref 7 S. aureus = experiment: MIC by microdilution in broth, reference strain Ref 7; design: key to Phenotype (R = resistant, S = sensitive): RA signifies resistance to amoxicillin; RC signifies resistance to ceftriaxone; RM signifies resistance to meropenem; RO resistance to oxacillin; SA signifies sensitive to amoxicillin; SC signifies sensitive to ceftriaxone; SM signifies sensitive to meropenem; SO sensitive to oxacillin; settings: mecA
Experimental: as §1

[6] = test system: Isolate 9 (Staphylococcus aureus); experiment: Resistance characterization on functionalized analysis plate, MALDI-TOF (Example 4); settings: isolate 9 (S. aureus); oxacillin 2 μg/ml; threshold identification probability ≥90% for at least 3 deposits out of 4
Experimental: as §2, §3, §4, §5, §6, §7, §8, §9
(§11) When no sample deposit was provided on an analysis zone, this zone is covered with a Parafilm M plastic film (Bemis North America) before putting the analysis plate in the cassette. In this way, the analysis zone was not brought into contact with the culture medium contained in the sponge impregnated to saturation. The positions unused in the first analysis thus remained usable for a subsequent analysis.
as §10

[7] = test system: Isolate 10 (Staphylococcus aureus); experiment: as above; settings: isolate 10 (S. aureus); oxacillin 2 μg/ml; threshold identification probability ≥90% for at least 3 deposits out of 4
Experimental: as §2, §3, §4, §5, §6, §7, §8, §9, §11, §10

[8] = test system: Isolate 12 (Staphylococcus epidermidis); experiment: as above; settings: isolate 12 (S. epidermidis); oxacillin 2 μg/ml; threshold identification probability ≥90% for at least 3 deposits out of 4
Experimental: as §2, §3, §4, §5, §6, §7, §8, §9, §11, §10

[9] = test system: Isolate 11 (Staphylococcus aureus); experiment: as above; settings: isolate 11 (S. aureus); oxacillin 2 μg/ml; threshold identification probability ≥90% for at least 3 deposits out of 4
Experimental: as §2, §3, §4, §5, §6, §7, §8, §9, §11, §10

[10] = test system: Reference strain No. 6 (S. aureus); experiment: MIC determination on analysis plate with oxacillin concentration range, MALDI-TOF (Example 5)
Experimental: as §4, §5, §6, §7
(§12) The dilutions of Staphylococci of the reference strains and of the isolates were analyzed on the analysis plates according to the invention with 4 deposits of oxacillin at 0.125 μg/ml, 4 deposits of oxacillin at 0.25 μg/ml, 4 deposits of oxacillin at 0.5 μg/ml, 4 deposits of oxacillin at 1 μg/ml, 4 deposits of oxacillin at 2 μg/ml, 4 deposits of oxacillin at 4 μg/ml, 4 deposits of oxacillin at 8 μg/ml, 4 deposits of oxacillin at 16 μg/ml, 4 deposits of oxacillin at 32 μg/ml, 4 deposits of oxacillin at 64 μg/ml, 4 deposits of oxacillin at 128 μg/ml, 4 deposits of oxacillin at 256 μg/ml.

[11] = test system: Isolate 9 (Staphylococcus aureus); experiment: as above; settings: read-out: MIC by the method of the invention
Experimental: as §4, §5, §6, §7, §12

[12] = test system: Isolate 10 (Staphylococcus aureus); experiment: as above; settings: read-out: MIC by the method of the invention
Experimental: as §4, §5, §6, §7, §12

[13] = test system: Isolate 12 (Staphylococcus epidermidis); experiment: as above; settings: read-out: MIC by the method of the invention
Experimental: as §4, §5, §6, §7, §12

[14] = test system: reference strain No. 7 (S. aureus); experiment: as above
Experimental: as §4, §5, §6, §7, §12

[15] = test system: Isolate 11 (Staphylococcus aureus); experiment: as above; settings: read-out: MIC by the method of the invention
Experimental: as §4, §5, §6, §7, §12

Ref 6 S. aureus = experiment: MIC by microdilution in broth, reference strain Ref 6; design: key to Phenotype (R = resistant, S = sensitive): RA signifies resistance to amoxicillin; RC signifies resistance to ceftriaxone; RM signifies resistance to meropenem; RO resistance to oxacillin; SA signifies sensitive to amoxicillin; SC signifies sensitive to ceftriaxone; SM signifies sensitive to meropenem; SO sensitive to oxacillin
Experimental: as §1

[16] = Staphylococcus aureus, microdilution in broth, read-out: Minimum inhibitory concentration (MIC in μg/ml)

MIC (Ref 3 E. coli) [µg/mL]	MIC (Ref 4 E. coli) [µg/mL]	MIC (Ref 1 K. pneumoniae) [µg/mL]	MIC (Ref 5 E. coli) [µg/mL]	MIC (Ref 2 K. pneumoniae) [µg/mL]	SMILES	Phenotype (R = resistant, S = sensitive) (Ref 3 E. coli)	Phenotype (R = resistant, S = sensitive) (Ref 4 E. coli)	Phenotype (R = resistant, S = sensitive) (Ref 1 K. pneumoniae)	Phenotype (R = resistant, S = sensitive) (Ref 5 E. coli)	Isolate characterized as resistant or sensitive to the antibiotic [1]	Isolate characterized as resistant or sensitive to the antibiotic [2]	Isolate characterized as resistant or sensitive to the antibiotic [3]	Isolate characterized as resistant or sensitive to the antibiotic [4]	Isolate characterized as resistant or sensitive to the antibiotic [5]	Phenotype (R = resistant, S = sensitive) (Ref 2 K. pneumoniae)	also measured
0.5 (≈ 1.3 µM)	0.06 (≈ 0.156 µM)	64 (≈ 167 µM)	0.5 (≈ 1.3 µM)	0.25 (≈ 0.652 µM)	C[C@@H](O)[C@H]1C(=O)N2C(C(=O)O)=C(S[C@@H]3CN[C@H](C(=O)N(C)C)C3)[C@H](C)[C@H]12 [Meropenem, meropenem]	SM	SM	RM	SM	sensitive	sensitive	sensitive	sensitive	sensitive	SM	–
16 (≈ 28.9 µM)	0.25 (≈ 0.451 µM)	64 (≈ 115 µM)	8 (≈ 14.4 µM)	32 (≈ 57.7 µM)	CO/N=C(\C(=O)N[C@@H]1C(=O)N2C(C(=O)O)=C(CSc3nc(=O)c(=O)[nH]n3C)CS[C@H]12)c1csc(N)n1 [Ceftriaxone, ceftriaxone]	RC	SC	RC	RC	sensitive	sensitive	resistant	sensitive	resistant	RC	–
–	–	–	–	–	Cc1onc(-c2ccccc2)c1C(=O)N[C@@H]1C(=O)N2[C@@H]1SC(C)(C)[C@@H]2C(=O)O [Oxacillin, oxacillin]	–	–	–	–	–	–	–	–	–	–	MIC (Ref 7 S. aureus; [16]): 128 µg/mL (≈ 319 µM); Phenotype (R = resistant, S = sensitive) (Ref 7 S. aureus): RO; Isolate characterized as resistant or sensitive to the antibiotic [6]: resistant; Isolate characterized as resistant or sensitive to the antibiotic [7]: sensitive; Isolate characterized as resistant or sensitive to the antibiotic [8]: sensitive; Isolate characterized as resistant or sensitive to the antibiotic [9]: sensitive; MIC ([10]; Staphylococcus aureus, equals Table 2 MIC, read-out: MIC, lowest growth inhibiting concentration observed by the method of the invention): 0.25 µg/mL (≈ 0.623 µM); Identification as S. aureus ([10]; higher concentrations of oxacillin (above 0.25 μg/ml)): not identified; Identification probability as S. aureus ([10]; oxacillin 0.125 μg/ml, in 3 deposits out of 4): greater than 99.9%; Identification probability as S. aureus ([10]; oxacillin 0.25 μg/ml, for 1 deposit out of 4): greater than 99.9%; MIC [11]: 16 µg/mL (≈ 39.9 µM); MIC [12]: 0.25 µg/mL (≈ 0.623 µM); MIC [13]: 0.125 µg/mL (≈ 0.311 µM); MIC ([14]; Staphylococcus aureus, compliant with Table 2, read-out: MIC by the method of the invention): 128 µg/mL (≈ 319 µM); Identification probability as S. aureus ([14]; oxacillin 0.125 at 64 μg/ml): 99.9%; Identification as S. aureus ([14]; oxacillin 128 and 256 μg/ml): not identified; MIC [15]: 0.5 µg/mL (≈ 1.25 µM); Phenotype (R = resistant, S = sensitive) (Ref 6 S. aureus): SO; MIC (Ref 6 S. aureus; [16]): 0.25 µg/mL (≈ 0.623 µM)
32 (≈ 87.6 µM)	1 (≈ 2.74 µM)	> 128	> 128	64 (≈ 175 µM)	CC1(C)S[C@@H]2[C@H](NC(=O)[C@H](N)c3ccc(O)cc3)C(=O)N2[C@H]1C(=O)O [Amoxicillin, amoxicillin]	RA	SA	RA	RA	resistant	resistant	resistant	resistant	resistant	RA	–
